Activity calls are given as the source filed them. The rule behind the calls is not given here.
How the values were obtained:
[1] = biological target: T1, Nuclear factor erythroid 2-related factor 2 (Rattus norvegicus) (UniProt O54968); experiment: Induction of Nrf2 nuclear translocation in rat PC-12 cells assessed as decrease in cytoplasmic Nrf2 level at 1.25 to 5 uM incubated for 24 hrs by Western blot analysis; format: cell-based; settings: dose 1.25-5 µM
T1 sequence (whole entry): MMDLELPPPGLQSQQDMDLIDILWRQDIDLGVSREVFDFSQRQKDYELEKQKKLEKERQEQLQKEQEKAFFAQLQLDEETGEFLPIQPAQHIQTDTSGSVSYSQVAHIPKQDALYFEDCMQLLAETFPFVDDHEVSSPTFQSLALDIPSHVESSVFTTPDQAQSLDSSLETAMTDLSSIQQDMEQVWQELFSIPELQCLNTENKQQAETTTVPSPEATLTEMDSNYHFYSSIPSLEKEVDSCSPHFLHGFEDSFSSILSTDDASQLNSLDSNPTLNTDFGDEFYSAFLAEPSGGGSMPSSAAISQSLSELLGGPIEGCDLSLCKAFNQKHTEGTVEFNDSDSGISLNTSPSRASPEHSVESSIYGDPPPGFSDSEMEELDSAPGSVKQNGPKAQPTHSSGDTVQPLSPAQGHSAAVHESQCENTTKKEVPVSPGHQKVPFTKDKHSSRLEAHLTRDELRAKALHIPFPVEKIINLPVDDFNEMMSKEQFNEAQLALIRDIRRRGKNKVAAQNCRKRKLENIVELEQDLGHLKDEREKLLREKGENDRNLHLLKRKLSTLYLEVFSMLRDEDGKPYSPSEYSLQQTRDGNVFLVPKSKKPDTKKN

[2] = test system: PC-12; experiment: Cytoprotective activity against H2O2-induced cell death in rat PC-12 cells assessed as increase in cell viability at 10 uM incubated for 1 hr followed by H2O2 stimulation and measured after 5 hrs by MTT assay; format: functional; settings: time 6 hrs
[3] = Oral bioavailability in Sprague-Dawley rat at 20 mg/kg measured upto 24 hrs by LC-MS/MS analysis; format: ADME, organism-based; settings: in vivo
[4] = biological target: T1, Nuclear factor erythroid 2-related factor 2 (Rattus norvegicus); experiment: Induction of Nrf2 nuclear translocation in rat PC-12 cells assessed as SNP-induced SOD level at 5 uM incubated for 1 hr followed by SNP stimulation and measured after 24 hrs (reference value: 23.74 +/- 2.02 U/mg); format: cell-based; settings: time 25.0 hrs
[5] = biological target: T1, Nuclear factor erythroid 2-related factor 2 (Rattus norvegicus); experiment: Induction of Nrf2 nuclear translocation in rat PC-12 cells assessed as H2O2-induced SOD level at 2.5 uM incubated for 1 hr followed by H2O2 stimulation and measured after 5 hrs (reference value: 29.69 +/- 1.65 U/mg); format: cell-based; settings: time 6.0 hrs
[6] = Toxicity in […] assessed as body weight at 400 mg/kg, ip measured on day 7 (reference value: 24.4 to 28.4 g); format: organism-based; settings: in vivo, 168 h, time 7 day
[7] = biological target: T1, Nuclear factor erythroid 2-related factor 2 (Rattus norvegicus); experiment: Induction of Nrf2 nuclear translocation in rat PC-12 cells assessed as SNP-induced GSH level at 2.5 uM incubated for 1 hr followed by SNP stimulation and measured after 24 hrs (reference value: 75.78 +/- 1.74 nM/mg); format: cell-based; settings: time 25.0 hrs
[8] = biological target: T1, Nuclear factor erythroid 2-related factor 2 (Rattus norvegicus); experiment: Induction of Nrf2 nuclear translocation in rat PC-12 cells assessed as SNP-induced GSH-px level at 10 uM incubated for 1 hr followed by SNP stimulation and measured after 24 hrs (reference value: 37.70 +/- 2.88 mU/mg); format: cell-based; settings: time 25.0 hrs
[9] = biological target: T1, Nuclear factor erythroid 2-related factor 2 (Rattus norvegicus); experiment: Induction of Nrf2 nuclear translocation in rat PC-12 cells assessed as H2O2-induced GSH-px level at 5 uM incubated for 1 hr followed by H2O2 stimulation and measured after 5 hrs (reference value: 45.92 +/- 3.64 mU/mg); format: cell-based; settings: time 6.0 hrs
[10] = test system: Rattus norvegicus; experiment: Neuroprotective activity in Sprague-Dawley rat model of middle cerebral artery occlusion-induced ischemic injury assessed as decrease in TNF-alpha level at 3 to 30 mg/kg, ip administered TID and measured after 24 hrs by ELISA; format: functional, organism-based; settings: dose 3-30 mg/kg
[11] = test system: Rattus norvegicus; experiment: Neuroprotective activity in Sprague-Dawley rat model of middle cerebral artery occlusion-induced ischemic injury assessed as infarction volume at 30 mg/kg, ip administered TID and measured after 6 hrs by TTC staining based assay (reference value: 28.67 +/- 2.90 %); format: functional
[12] = MRT in Sprague-Dawley rat at 20 mg/kg, po measured upto 24 hrs by LC-MS/MS analysis; format: ADME, organism-based; settings: in vivo
[13] = test system: PC-12; experiment: Reversal of LY294002-induced Nrf2 inhibition in rat PC-12 cells at 1.25 to 5 uM incubated for 1 hr followed by LY294002 stimulation and measured after 24 hrs by Western blot analysis; format: functional, cell-based; settings: dose 1.25-5 µM, time 25.0 hrs
[14] = test system: PC-12; experiment: Inhibition of SNP-induced apoptosis in rat PC-12 cells assessed as effect on cell morphology incubated for 1 hr followed by SNP stimulation and measured after 24 hrs by Hoechst 33258 staining based fluorescence microscopy; format: functional; settings: dose 2.5-10 µM, time 25.0 hrs
[15] = biological target: T1, Nuclear factor erythroid 2-related factor 2 (Rattus norvegicus); experiment: Induction of Nrf2 nuclear translocation in rat PC-12 cells assessed as H2O2-induced GSH level at 10 uM incubated for 1 hr followed by H2O2 stimulation and measured after 5 hrs (reference value: 65.52 +/- 1.44 nM/mg); format: cell-based; settings: time 6.0 hrs
[16] = test system: PC-12; experiment: Effect on Nrf2 in rat PC-12 cells at 1.25 to 5 uM incubated for 24 hrs by Western blot analysis; format: functional, cell-based; settings: dose 1.25-5 µM
[17] = MRT in Sprague-Dawley rat at 2 mg/kg, iv measured upto 24 hrs by LC-MS/MS analysis; format: ADME, organism-based; settings: in vivo
[18] = biological target: T1, Nuclear factor erythroid 2-related factor 2 (Rattus norvegicus); experiment: Induction of Nrf2 nuclear translocation in rat PC-12 cells assessed as SNP-induced SOD level incubated for 1 hr followed by SNP stimulation and measured after 24 hrs; format: cell-based; settings: dose 2.5-10 µM, time 25.0 hrs
[19] = biological target: T1, Nuclear factor erythroid 2-related factor 2 (Rattus norvegicus); experiment: Induction of Nrf2 nuclear translocation in rat PC-12 cells assessed as SNP-induced GSH-px level incubated for 1 hr followed by SNP stimulation and measured after 24 hrs; format: cell-based; settings: dose 2.5-10 µM, time 25.0 hrs
[20] = Metal chelating activity of the compound assessed as Fe2+-compound complex formation incubated for 10 mins in presence of ferrozine by UV-visible spectrophotometry; settings: read-out: IC50
[21] = Half life in Sprague-Dawley rat at 20 mg/kg, po measured upto 24 hrs by LC-MS/MS analysis; format: ADME, organism-based; settings: in vivo
[22] = biological target: T1, Nuclear factor erythroid 2-related factor 2 (Rattus norvegicus); experiment: Induction of Nrf2 nuclear translocation in rat PC-12 cells assessed as SNP-induced GSH-px level at 2.5 uM incubated for 1 hr followed by SNP stimulation and measured after 24 hrs (reference value: 37.70 +/- 2.88 mU/mg); format: cell-based; settings: time 25.0 hrs
[23] = Cmax in Sprague-Dawley rat at 2 mg/kg, iv measured upto 24 hrs by LC-MS/MS analysis; format: ADME, organism-based; parameters: route intravenous, dose 2 mg/kg, time <=24; settings: in vivo
[24] = Half life in Sprague-Dawley rat at 2 mg/kg, iv measured upto 24 hrs by LC-MS/MS analysis; format: ADME, organism-based; settings: in vivo
[25] = biological target: T1, Nuclear factor erythroid 2-related factor 2 (Rattus norvegicus); experiment: Induction of Nrf2 nuclear translocation in rat PC-12 cells assessed as H2O2-induced GSH-px level at 10 uM incubated for 1 hr followed by H2O2 stimulation and measured after 5 hrs (reference value: 45.92 +/- 3.64 mU/mg); format: cell-based; settings: time 6.0 hrs
[26] = test system: PC-12; experiment: Cytoprotective activity against SNP-induced cell death in rat PC-12 cells assessed as increase in cell viability at 10 uM incubated for 1 hr followed by SNP stimulation and measured after 24 hrs by MTT assay; format: functional; settings: time 25 hrs

Compound: COc1ccc(-c2nc(-c3ccccc3O)n(-c3ccc(S(N)(=O)=O)cc3)n2)c(O)c1
- Activity [1]: Active
- Activity [2]: 30%
- bioavailability [3]: 60.8%
- Activity [4]: 34.9 U/mg
- Activity [5]: 36.3 U/mg
- Activity [6]: 25.7 g
- Activity [7]: 79.1 nM/mg
- Activity [8]: 52.8 mU/mg
- Activity [9]: 65.2 mU/mg
- Activity [10]: Active
- Activity [11]: 18.06%
- MRT [12]: 6.32 h
- Activity [13]: Active
- inhibition [14]: Dose-dependent effect
- Activity [15]: 80.6 nM/mg
- Activity [16]: inactive
- MRT [17]: 2.37 h
- Activity [18]: Dose-dependent effect
- Activity [19]: Dose-dependent effect
- IC50 [20]: 36.3 µM
- half-life [21]: 4.26 h
- Activity [22]: 42.5 mU/mg
- Cmax [23]: 2750 ng/mL
- half-life [24]: 5.11 h
- Activity [25]: 77.9 mU/mg
- Activity [26]: 30%

— ChEMBL document CHEMBL4680194, “Synthesis and biological evaluation of 1,2,4-triazole derivatives as potential neuroprotectant against ischemic brain injury” (Eur J Med Chem, 2020)
